The nature of data set [1]: pH of purified gabapentin / gabapentin tablets. The class given is physicochemical.
Data set [2] can be described thus: Storage stability: conversion of gabapentin to its corresponding lactam (HPLC vs. standard). It counts as physicochemical. As to conditions: gabapentin pure; for conversion of gabapentin to its corresponding lactam: after a year of storage at 25° C. and 60% relative humidity. How it is done: Gabapentin purified according to these procedures contains less than 0.5% lactam as measured by HPLC vs. standard. After a year of storage at 25° C. and 60% relative humidity, the conversion of gabapentin to its corresponding lactam is measured not to exceed 0.2% by weight of gabapentin.

In the next data set the test system is cardiozole cramp. As to conditions: in animals; U.S. Pat. No. 4,024,175; cited from earlier work.
For data set [3] the following is noted: according to Augart (U.S. Pat. No. 6,054,482); cited from earlier work.
Where [4] appears, read: gabapentin pure after the reslurry in methanol (Examples 2, 3: basic agent added).
Setting [5] is: gabapentin pure after crystallization in methanol (Examples 11-16: basic agent added).

The structures appear in SMILES notation.

Consider `NCC1(CC(=O)O)CCCCC1` [Example 1, 1-(aminomethyl)-1-cyclohexaneacetic acid], for which, in data set [1] (setting [4]), the pH is reported as 6.84-7.04. In addition, the “conversion of gabapentin to its corresponding lactam” value (shortened to “conversion of gabapentin”) in data set [2] is given as ≤ 0.2 % by weight of gabapentin.
As for `NCC1(CC(=O)O)CCCCC1` [Example 2, 1-(aminomethyl)-1-cyclohexaneacetic acid], in data set [1] (setting [4]), the pH was 7.15. Besides, the “conversion of gabapentin” value in data set [2] is ≤ 0.2 % by weight of gabapentin.
As to `NCC1(CC(=O)O)CCCCC1` [Example 3, 1-(aminomethyl)-1-cyclohexaneacetic acid], in data set [1] (setting [4]), the pH worked out at 6.8. The “conversion of gabapentin” value in data set [2] is listed as ≤ 0.2 % by weight of gabapentin.
`NCC1(CC(=O)O)CCCCC1` [Example 4, 1-(aminomethyl)-1-cyclohexaneacetic acid]: the “conversion of gabapentin” value in data set [2] is ≤ 0.2 % by weight of gabapentin.
In turn, `NCC1(CC(=O)O)CCCCC1` [Example 11, 1-(aminomethyl)-1-cyclohexaneacetic acid] had a pH in data set [1] (setting [5]) of 7.25. Further, in data set [2], the “conversion of gabapentin” value is given as ≤ 0.2 % by weight of gabapentin.
In data set [1] (setting [5]), `NCC1(CC(=O)O)CCCCC1` [Example 12, 1-(aminomethyl)-1-cyclohexaneacetic acid] had a pH of 7.08. Further, the “conversion of gabapentin” value in data set [2] is listed as ≤ 0.2 % by weight of gabapentin. For the same molecule, the “amount of lactam after storage” value in data set [2] (after a year of storage at 55° C. and 50% relative humidity) is listed as “less than 0.5 % by weight”.
`NCC1(CC(=O)O)CCCCC1` [Example 13, 1-(aminomethyl)-1-cyclohexaneacetic acid]: the pH in data set [1] (setting [5]) was 7.28. Moreover, the “amount of lactam after storage” value in data set [2] (after a year of storage at 25° C. and 50% relative humidity) is reported as “less than 0.5 % by weight”. Further, the “conversion of gabapentin” value in data set [2] is recorded as ≤ 0.2 % by weight of gabapentin.
Take `NCC1(CC(=O)O)CCCCC1` [Example 14, 1-(aminomethyl)-1-cyclohexaneacetic acid]: in data set [1] (setting [5]), the pH came to 7.03.
Consider `NCC1(CC(=O)O)CCCCC1` [Example 15, 1-(aminomethyl)-1-cyclohexaneacetic acid], for which the pH in data set [1] (setting [5]) was 7.22.
On the same count and under the same terms, for `NCC1(CC(=O)O)CCCCC1` [Example 16, 1-(aminomethyl)-1-cyclohexaneacetic acid] the value was 7.17.
Consider `NCC1(CC(=O)O)CCCCC1` [gabapentin, 1-(aminomethyl)-1-cyclohexaneacetic acid], for which the “protective effect against cardiozole cramp” value in the data set on cardiozole cramp is “protective effect against cardiozole cramp”.
`O=C1CC2(CCCCC2)CN1` [lactam]: the “toxicity compared with gabapentin” value in data set [3] was “higher toxicity than gabapentin”.

(Values after patent US20040147607A1, “Stable gabapentin having pH within a controlled range” (priority 2000, published 2004).)
